Experimental data taken from patent US4230879A, “15-Deoxy-16-hydroxy-16-formyo or dimethoxy-methyl-prostane derivatives of the E and F series” (American Cyanamid Company, priority 1979, dated 1980).

Tested on: Histamine
Assay: KONZETT (Histamine)
Format: in vivo
Conditions: spasmogen histamine

For `CCCCC(O)(C=O)C/C=C/[C@H]1[C@H](O)CC(=O)[C@@H]1CCCCCCC(=O)O` (relative stereo) [dl-11α,16α/β-dihydroxy-9-oxo-16-formyl-13-trans-prostenoic acid], the ED50 was 8.89 µg/kg.
